Where two headings read alike, the source gives them in different places. Values belong to the molecule of their own block, whether it stands above or below them.
Legend:
Fms1 [1] = biological target: T1, Fms1 (Saccharomyces cerevisiae, UniProt P50264); assay: Fms1 cleavage of 1 mM Spd supplemented with aldehydes (E1/E2 regioselectivity); type: biochemical, yeast; design: made in house; conditions: for E1 cleavage (Put) kcat / E2 cleavage (DAP) kcat / Ratio of E1/E2: fixed 1 mM Spd, aldehyde 25-1000 μM, pH 9.0, 25°C;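 on all read-outs here: recombinant yeast Fms1 reactions in Glycine-NaOH buffer, with products Put and DAP quantified by HPLC using post-column o-phthalaldehyde derivatization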
T1 sequence (P50264 whole entry): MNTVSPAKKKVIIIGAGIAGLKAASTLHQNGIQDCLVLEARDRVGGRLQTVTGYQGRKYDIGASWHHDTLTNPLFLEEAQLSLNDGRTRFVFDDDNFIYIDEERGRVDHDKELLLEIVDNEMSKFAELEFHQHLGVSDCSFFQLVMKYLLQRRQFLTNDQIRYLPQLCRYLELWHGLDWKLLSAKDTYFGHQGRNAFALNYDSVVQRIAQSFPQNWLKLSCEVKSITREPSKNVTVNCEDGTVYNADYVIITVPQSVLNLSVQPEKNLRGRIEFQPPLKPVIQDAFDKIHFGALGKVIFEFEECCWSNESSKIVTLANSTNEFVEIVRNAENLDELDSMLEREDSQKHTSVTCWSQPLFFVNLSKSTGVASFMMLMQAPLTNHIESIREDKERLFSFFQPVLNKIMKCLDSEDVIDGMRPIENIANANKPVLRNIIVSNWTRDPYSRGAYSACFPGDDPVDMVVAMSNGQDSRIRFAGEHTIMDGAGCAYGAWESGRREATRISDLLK
Experimental: (§1) HPLC with post-column o-phthalaldehyde-derivatization was used to determine the concentrations of the reaction products Put and 1,3-diaminopropane (DAP) or butane-1,3-diamine respectively as described in [30]. Fms1 activity was determined essentially as described for human recombinant APAO, but reactions were carried out in 100 mM Glycine-NaOH buffer at pH 9.0 in a water bath at +25°C [29, 30].

Fms1 [2] = biological target: T1, Fms1; assay: Substrate kinetics with recombinant Fms1 (HPLC of reaction products); conditions: for Vmax / kcat: Supplementary Table 1, pH 9.0, 100 mM Glycine-NaOH, 25°C, Put formation;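 on all read-outs here: recombinant polyamine oxidases incubated with substrate, product amines (putrescine, 1,3-diaminopropane or butane-1,3-diamine) quantified by HPLC after post-column o-phthalaldehyde derivatization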
Experimental: as §1
The reactions were carried out in 1 triplicate at pH 9.0 in 100 mM Glycine-NaOH at +25°C.
values for N -Ac-MeSpd enantiomers were determined by using substrate concentrations of 25, 50,
for Rac-MeSpd 30 min, (R)-MeSpd 20 min and (S)-MeSpd 40 minutes.
The reactions were carried out in triplicate at pH 9.0 in 100 mM Glycine-NaOH at +25°C.
values for MeSpd enantiomers were determined by using substrate concentrations of 100, 300, 600,
1000, 2000 and 4000 M. Recombinant Fms1 was 3.8 g/reaction and the incubation time 60
incubated for 30 min (half of the reaction time of an ordinary sample). E1 cleavage was monitored

Fms1 [3] = biological target: T1, Fms1; assay: Fms1 cleavage of (R)- or (S)-MeSpd with or without aromatic aldehyde (E1/E2 velocities); type: biochemical, yeast; design: made in house
Experimental: Supplementary Table 3 The effects of increasing aromatic aldehyde concentration for the regioselectivity of Fms1 using (R)-MeSpd or (S)-MeSpd as a substrate.
The reactions were carried out in triplicate at pH 9.0 in 100 mM Glycine-NaOH at +25°C with the fixed 1 or 4 mM MeSpd supplemented with increasing concentration 50 or 500 µM of tested aldehyde. Recombinant Fms1 was 1.6 µg/reaction and the incubation time from 15 to 30 minutes.
Linearity of reaction was monitored by using T1/2 controls, i.e. samples that have been incubated for 7.5 to 15 min (half of the reaction time of an ordinary sample). E1 cleavage was monitored by HPLC by measuring Put formation and E2 cleavage by determining butane-1,3-diamine content.
Substrate (R)-MeSpd (S)-MeSpd […]

Fms1 [4] = biological target: T1, Fms1; assay: as above; type: biochemical, yeast; design: made in house; remark: listed apart in the source
human recombinant APAO [5] = biological target: T2, human recombinant APAO (Homo sapiens, UniProt Q6QHF9); conditions: cited from earlier work
T2 construct: made in house
T2 sequence (Q6QHF9 whole entry): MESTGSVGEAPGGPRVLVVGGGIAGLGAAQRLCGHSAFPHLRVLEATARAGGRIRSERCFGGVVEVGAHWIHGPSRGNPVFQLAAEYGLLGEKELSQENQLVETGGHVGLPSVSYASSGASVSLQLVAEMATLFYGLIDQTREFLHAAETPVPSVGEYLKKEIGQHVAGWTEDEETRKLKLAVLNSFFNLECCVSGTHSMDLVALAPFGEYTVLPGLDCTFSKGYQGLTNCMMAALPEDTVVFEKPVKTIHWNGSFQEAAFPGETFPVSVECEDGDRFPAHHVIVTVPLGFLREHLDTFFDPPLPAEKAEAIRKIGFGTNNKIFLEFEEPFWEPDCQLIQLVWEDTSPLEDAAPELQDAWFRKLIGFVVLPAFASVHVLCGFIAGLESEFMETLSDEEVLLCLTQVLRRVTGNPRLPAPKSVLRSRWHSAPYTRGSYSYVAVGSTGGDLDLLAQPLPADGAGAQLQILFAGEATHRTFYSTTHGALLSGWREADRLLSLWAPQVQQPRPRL

human recombinant APAO [6] = biological target: T2, human recombinant APAO; assay: Substrate kinetics with human recombinant APAO (HPLC of reaction products); type: biochemical; conditions: for Km / Vmax / kcat: 100 mM Glycine-NaOH pH 9.5, 5 mM DTT
SMOX = SMOX (Homo sapiens, UniProt Q9NWM0); assay: Inhibition of SMOX (Ki, peroxidase-coupled fluorescence, Spm as substrate)
SMOX, sequence (Q9NWM0 whole entry): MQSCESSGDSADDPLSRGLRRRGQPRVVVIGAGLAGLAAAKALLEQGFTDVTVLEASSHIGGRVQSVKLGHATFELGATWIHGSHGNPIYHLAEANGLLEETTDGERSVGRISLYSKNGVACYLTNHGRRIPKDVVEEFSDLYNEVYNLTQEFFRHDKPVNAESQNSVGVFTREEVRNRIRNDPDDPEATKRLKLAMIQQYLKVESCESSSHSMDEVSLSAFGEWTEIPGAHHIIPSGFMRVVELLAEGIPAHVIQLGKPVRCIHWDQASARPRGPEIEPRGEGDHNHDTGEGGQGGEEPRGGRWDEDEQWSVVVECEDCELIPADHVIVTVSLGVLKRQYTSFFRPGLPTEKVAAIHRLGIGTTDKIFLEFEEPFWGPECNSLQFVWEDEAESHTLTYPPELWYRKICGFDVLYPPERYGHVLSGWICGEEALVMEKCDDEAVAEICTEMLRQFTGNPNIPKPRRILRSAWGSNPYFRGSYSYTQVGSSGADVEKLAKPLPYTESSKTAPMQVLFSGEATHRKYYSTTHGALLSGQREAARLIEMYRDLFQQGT
Experimental: Reaction mixtures contained 40 units/ml horseradish peroxidase (Roche), 1 mM homovanillic acid in 100 mM Glycine-NaOH at pH 9.0 supplemented with 40 ng of SMOX. […] Dilutions of fresh H2O2 were used as standard.

Fms1 [7] = biological target: T1, Fms1; design: made in house; method as in PMID 21067138; conditions: cited from earlier work
[8] = aldehyde A13 50 µM, first of two lines (1 or 4 mM MeSpd, not stated which)
[9] = aldehyde A12 50 µM, first of two lines (1 or 4 mM MeSpd, not stated which)
[10] = aldehyde A12 50 µM, second of two lines (1 or 4 mM MeSpd, not stated which)
[11] = aldehyde A12 500 µM, first of two lines (1 or 4 mM MeSpd, not stated which)
[12] = aldehyde A12 500 µM, second of two lines (1 or 4 mM MeSpd, not stated which)
[13] = aldehyde A13 50 µM, second of two lines (1 or 4 mM MeSpd, not stated which)
[14] = aldehyde A13 500 µM, first of two lines (1 or 4 mM MeSpd, not stated which)
[15] = aldehyde A13 500 µM, second of two lines (1 or 4 mM MeSpd, not stated which)
[16] = Ki (best-fit value, noncompetitive inhibition), GraphPad Prism global fit, supplement
[17] = Ki, non-competitive fit, 25, 50 or 100 µM Spm, pH 9.0, 37°C

E1 cleavage (Put) kcat (Fms1 [1]): 0.49 ± 0.01 s⁻¹
E2 cleavage (DAP) kcat (Fms1 [1]): 0.49 ± 0.01 s⁻¹
Ratio of E1/E2 (Fms1 [1]): 2.2
Compound: O=Cc1ccccn1 [C00007]

E1 cleavage (Put) kcat (Fms1 [1]): 0.11 ± 0.00 s⁻¹
E2 cleavage (DAP) kcat (Fms1 [1]): 0.03 ± 0.00 s⁻¹
Ratio of E1/E2 (Fms1 [1]): 118
Compound: O=Cc1ccc(O)cc1 [C00004]

E1 cleavage (Put) kcat (Fms1 [1]): 1.06 ± 0.04 s⁻¹
E2 cleavage (DAP) kcat (Fms1 [1]): 0.03 ± 0.00 s⁻¹
Compound: O=Cc1ccccc1[N+](=O)[O-] [C00011]

Km (Fms1 [2]; Fms1, text summary of Supplementary Table S2): > 500 µM
E2 cleavage velocity (Fms1 [3]; Without aldehyde, 1 mM MeSpd): 7.9 ± 1.1 nmol/mg/min
E1 cleavage velocity (Fms1 [3]; Without aldehyde, 4 mM MeSpd): 9.6 ± 0.1 nmol/mg/min
E2 cleavage velocity (Fms1 [3]; Without aldehyde, 4 mM MeSpd): 11.1 ± 1.8 nmol/mg/min
E1 cleavage velocity (Fms1 [3]; [8]): 45.6 ± 2.6 nmol/mg/min
E1 cleavage velocity (Fms1 [4]; Without aldehyde, 1 mM MeSpd): 7.2 ± 0.2 nmol/mg/min
E1 cleavage velocity (Fms1 [4]; [9]): 29 ± 1.0 nmol/mg/min
E2 cleavage velocity (Fms1 [4]; [9]): 20.2 ± 1.0 nmol/mg/min
E1 cleavage velocity (Fms1 [4]; [10]): 31 ± 1.8 nmol/mg/min
E2 cleavage velocity (Fms1 [4]; [10]): 23.3 ± 2.0 nmol/mg/min
E1 cleavage velocity (Fms1 [4]; [11]): 57 ± 1.1 nmol/mg/min
E2 cleavage velocity (Fms1 [4]; [11]): 36 ± 4.2 nmol/mg/min
E1 cleavage velocity (Fms1 [4]; [12]): 62 ± 3 nmol/mg/min
E2 cleavage velocity (Fms1 [4]; [12]): 41 ± 2.5 nmol/mg/min
E2 cleavage velocity (Fms1 [4]; [8]): 8.6 ± 1.8 nmol/mg/min
E1 cleavage velocity (Fms1 [4]; [13]): 44.0 ± 1.2 nmol/mg/min
E2 cleavage velocity (Fms1 [4]; [13]): 10.0 ± 0.6 nmol/mg/min
E1 cleavage velocity (Fms1 [4]; [14]): 66.1 ± 0.0 nmol/mg/min
E2 cleavage velocity (Fms1 [4]; [14]): 6.9 ± 0.7 nmol/mg/min
E1 cleavage velocity (Fms1 [4]; [15]): 73.5 ± 0.4 nmol/mg/min
E2 cleavage velocity (Fms1 [4]; [15]): 7.4 ± 1.3 nmol/mg/min
Compound: C[C@H](N)CCNCCCCN [(S)-MeSpd, 1,8-diamino-5-azanonane]

Compound: COc1ccc(C=O)cc1 [A4]
effect on cleavage site balance of Spd (Fms1 [1]; Spd plus aldehyde): shifted the balance towards E2 cleavage site

Vmax (Fms1 [2]): 50 ± 3 nmol/min/mg
kcat (Fms1 [2]): 0.05 ± 0.00 s⁻¹
Compound: CC(=O)NC(C)CCNCCCCN (stereo not drawn) [N1-Ac-MeSpd, N8-Acetyl-1,8-diamino-5-azanonane]

E1 cleavage (Put) kcat (Fms1 [1]): 1.41 ± 0.04 s⁻¹
E2 cleavage (DAP) kcat (Fms1 [1]): 0.43 ± 0.01 s⁻¹
Ratio of E1/E2 (Fms1 [1]): 5.4
Compound: O=CC1CCCCC1 [C00010]

Compound: NCCCCNCCCN [Spd, spermidine, reference compound]
Ratio of E1/E2 (Fms1 [2]; substrate alone, no aldehyde, pH 9.0, 25°C): 7.5

E1 cleavage (Put) kcat (Fms1 [1]): 5.5 ± 0.1 s⁻¹
E2 cleavage (DAP) kcat (Fms1 [1]): 0.48 ± 0.01 s⁻¹
Ratio of E1/E2 (Fms1 [1]): 8.0
Compound: O=Cc1cccnc1 [C00006]

Compound: CC(=O)N[C@@H](C)CCNCCCCN [N^1-Ac-(S)-MeSpd]
Vmax (Fms1 [2]): 22 ± 1 nmol/min/mg
kcat (Fms1 [2]): 0.02 ± 0.00 s⁻¹
Km (human recombinant APAO [5]): 170 µM
kcat (human recombinant APAO [5]): 1.2 s⁻¹

Km (human recombinant APAO [6]): 1.2 ± 0.7 µM
Vmax (human recombinant APAO [6]): 5.02 ± 0.74 µmol/min/mg
kcat (human recombinant APAO [6]): 4.6 ± 0.7 s⁻¹
Ki (SMOX; [16]): 589 µM
Ki (SMOX; [17]): 589 ± 58 µM
Compound: C[C@H](CCNCCCCN)NC(=O)c1ccccc1 [Bz-(R)-MeSpd]

Compound: CC(=O)N[C@H](C)CCNCCCCN [N^1-Ac-(R)-MeSpd]
Vmax (Fms1 [2]): 61 ± 4 nmol/min/mg
kcat (Fms1 [2]): 0.06 ± 0.00 s⁻¹
Km (human recombinant APAO [5]): 95 µM
kcat (human recombinant APAO [5]): 9 s⁻¹
specificity constant ratio (R)-enantiomer/(S)-enantiomer (human recombinant APAO [6]; APAO, ratio of kcat/Km): 13

E1 cleavage (Put) kcat (Fms1 [1]): 1.13 ± 0.03 s⁻¹
Compound: Cc1ncc(CO)c(C=O)c1O [C00008]

Compound: CC(=O)NCCCNCCCCNCCCN [N^1-AcSpm]
kcat (Fms1 [7]): 15.1 ± 0.4 s⁻¹

Km (human recombinant APAO [6]): 0.8 ± 0.2 µM
Vmax (human recombinant APAO [6]): 0.02 ± 0.00 µmol/min/mg
kcat (human recombinant APAO [6]): 0.01 ± 0.00 s⁻¹
Ki (SMOX; [16]): 1020 µM
Ki (SMOX; [17]): 1020 ± 79 µM
Compound: C[C@@H](CCNCCCCN)NC(=O)c1ccncc1 [P4-(S)-MeSpd]
